# Measured values reported in publication PMC5668434, “Modulation of telomere protection by the PI3K/AKT pathway” (Nature Communications, 2017).
# How the values were obtained:
# PI3K (p110α) = target: T1, PI3K (p110α) (Homo sapiens, UniProt P42336); experiment: PI3K alpha biochemical assay (ADP Hunter Plus); conditions: internal data; read-out: PI3Kα IC50
# T1 construct: purchased Cama Biosciences (sic; Carna Biosciences) #07CBS-0402A
# mTOR (FRAP1) = target: T2, mTOR (FRAP1) (Homo sapiens, UniProt P42345); experiment: mTOR biochemical assay (LanthaScreen); conditions: internal data
# T2 construct: purchased ThermoFisher PV4753
# T2 sequence (P42345 1360-2549 limits assumed): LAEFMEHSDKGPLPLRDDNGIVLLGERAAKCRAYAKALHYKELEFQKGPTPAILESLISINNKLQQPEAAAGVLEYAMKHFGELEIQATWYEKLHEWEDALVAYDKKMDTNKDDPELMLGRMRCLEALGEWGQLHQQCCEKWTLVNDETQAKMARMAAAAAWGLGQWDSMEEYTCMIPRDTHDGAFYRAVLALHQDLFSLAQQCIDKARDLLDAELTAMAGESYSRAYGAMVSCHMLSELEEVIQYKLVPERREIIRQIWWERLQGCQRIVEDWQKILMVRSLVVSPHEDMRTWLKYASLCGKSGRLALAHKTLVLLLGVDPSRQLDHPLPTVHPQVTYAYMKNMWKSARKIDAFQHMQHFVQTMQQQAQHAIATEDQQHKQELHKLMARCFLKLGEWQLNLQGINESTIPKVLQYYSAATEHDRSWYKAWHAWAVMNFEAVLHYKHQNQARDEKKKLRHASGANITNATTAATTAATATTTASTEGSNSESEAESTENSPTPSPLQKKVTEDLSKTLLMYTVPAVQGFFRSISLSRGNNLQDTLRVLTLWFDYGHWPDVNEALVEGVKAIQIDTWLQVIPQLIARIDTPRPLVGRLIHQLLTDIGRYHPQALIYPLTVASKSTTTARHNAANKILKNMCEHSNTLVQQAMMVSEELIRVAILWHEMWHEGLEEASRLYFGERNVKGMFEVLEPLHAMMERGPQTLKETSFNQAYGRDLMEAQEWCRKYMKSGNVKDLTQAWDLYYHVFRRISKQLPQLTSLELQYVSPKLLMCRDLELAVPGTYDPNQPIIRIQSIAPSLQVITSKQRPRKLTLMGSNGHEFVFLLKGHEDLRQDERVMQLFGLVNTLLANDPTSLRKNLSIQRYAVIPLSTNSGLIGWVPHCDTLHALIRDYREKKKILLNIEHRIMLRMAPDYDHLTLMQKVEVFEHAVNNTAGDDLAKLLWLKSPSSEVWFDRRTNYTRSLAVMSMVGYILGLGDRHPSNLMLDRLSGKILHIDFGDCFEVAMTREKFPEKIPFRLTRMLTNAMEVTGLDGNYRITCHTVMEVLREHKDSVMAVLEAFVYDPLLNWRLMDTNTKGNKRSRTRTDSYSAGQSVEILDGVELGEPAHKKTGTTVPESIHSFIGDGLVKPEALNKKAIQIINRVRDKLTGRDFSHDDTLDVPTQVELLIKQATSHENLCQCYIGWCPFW
# [1] = system: p-AKT S473 in CHA-9.3 mouse lung cancer cell line; experiment: Western blot of AKT phosphorylation at Ser473 in CHA-9.3 cells; format: cell-based; conditions: 10 μM (GSK-2126458 1.0 μM), 24 h
# Experimental: These new chemical probes were prepared by replacement of a single key oxygen atom from the morpholine moiety by a methylene group, generating the piperidine derivatives ETP-51259 and ETP-50952 (Fig. 1a). To assess their PI3K cellular activity, we measured phosphorylation of residue Ser473 in AKT (p-AKT S473), a PI3K downstream target[61]–[63], by western blot analysis. To this end, we used the CHA-9.3 mouse lung cancer cell line previously generated by us[39]. […] Of note, the inhibitory activity of ETP-47037 was more prolonged than that of ETP-47228. Thus, ETP-47037 mediated p-AKT S473 inhibition was maintained during the 24-hour treatment while the ETP-47228 mediated inhibition decreased 35% after 24 h as compared to 1-h treatment but still was able to inhibit the pathway above 50% (Fig. 1c).
# For detection of AKT, PRAS40 (T246) and pS6 in CHA9.3 cells, untreated control (DMSO) or treated with the indicated inhibitors, were lysed in RIPA buffer supplemented with 100 mM pefablock (Roche Diagnostics) and protease inhibitor cocktail (Roche Molecular Biochemicals). Proteins were resolved on 10% SDS-PAGE, and transferred to nitrocellulose membrane (Amersham^TM Protan^TM 0.2 µm nNC). Membranes were incubated with antibodies against phospho-AKT (Ser473), AKT, phospo-S6 (Ser 235/236), and S6Ribosomal from Cell Signaling, phospo-PRAS40 (Thr246) from BIOSURCE and anti α-tubulin form Sigma, overnight at 4 °C. After washing, blots were incubated with secondary antibody: Alexa Fluor 680 goat anti-rabbit IgG (Invitrogen) or anti-mouse IgG DyLight 800 conjugated (Thermo Scientific), and visualized using an Odyssey infrared imaging system (Li-Cor Biosciences).
# [2] = system: TRF1 foci in CHA-9.3 mouse lung tumor cell line; experiment: TRF1 foci immunofluorescence in CHA-9.3 cells; format: cell-based
# Experimental: (§1) TRF1 immunofluorescence of TRF1 was performed in lung tumor-derived cell line (CHA9.3) and in MEFs[39]. A rat monoclonal antibody against mouse TRF1 developed by the Monoclonal antibody unit at CNIO was used to detect endogenous TRF1 (1:500). GFP-TRF1 fluorescence was directly measured in cells fixed in paraformaldehyde. For quantification of TRF1 foci intensity, pictures of fixed cells were automatically acquired from each well by the Opera HCS system (Perkin Elmer). Sixty images of random fields per well, with a 40× magnification lens, were taken under non-saturating conditions. At least 1 × 10^3 cells were analyzed for each well. Briefly, images were segmented using the DAPI staining to generate masks matching cell nuclei from which-TRF1 foci were analyzed.
# [3] = system: TRF1 foci in p53−/− mouse embryo fibroblasts (MEF); experiment: TRF1 foci immunofluorescence in p53−/− MEFs; format: cell-based; conditions: 10 μM, 24 h
# Experimental: We then checked whether PI3Kα/AKT inhibition also leads to decreased TRF1 foci in an additional cell type to CHA-9.3 cells. Thus, we used p53 ^−/− mouse embryo fibroblasts (MEF). We treated these MEFs either with the AKT inhibitor MK-2206 or with ETP-47037 at 10 μM concentration for 24 h and analyzed TRF1 foci by immunofluorescence.
# as §1
# CHA 9-3 cells = experiment: Multitelomeric signals (MTS) by Q-FISH on metaphase spreads; format: cell-based, mouse; conditions: 10 μM, 24 h
# From the text: Trf1 abrogation is known to lead to a persistent DDR at telomeres, and to induction of telomere-induced chromosomal aberrations[28]–[30]. Trf1 genetic deletion induces the so-called multitelomeric signals (MTS), a chromosomal aberration related to increased telomere fragility during DNA replication, [29]. […] To this end, we treated CHA 9-3 cells with either DMSO, the AKT inhibitor MK-2206 (AKTi) and the PI3K inhibitors ETP-47037 or ETP-47228. For detection of MTS, we performed quantitative fluorescence in situ hybridization (Q-FISH) analysis on metaphase spreads using a telomeric probe to visualize telomeres (“Methods” section). MTS are visualized by presenting a multi-dot pattern at chromosome ends in contrast to normal telomeres that show a single dot at each chromosome end.
# Lung cancer-derived cell line (CHA-9-3) and immortalized P110α ^lox/lox MEFS were treated either with 10 µM of ETP-47037, ETP-47228, or AKTi (MK-2206) for 24 h. Q-FISH in metaphase spreads was performed as described above, but increasing the concentration of formamide in both the incubation and the washes to 70%.
# [4] = system: TRF1 mRNA in CHA 9-3 lung cancer cells; experiment: TRF1 mRNA by qPCR; format: cell-based, mouse; conditions: 10 μM, 24 h
# [5] = system: TRF1 protein in CHA 9-3 nuclear extracts; experiment: Western blot of nuclear TRF1 in CHA 9-3 cells; format: cell-based, mouse; conditions: 10 μM
# Experimental: (§2) Blots were incubated with the primary antibodies anti-TRF1 1:500 (home-made monoclonal Rat, CNIO; TRF-78, ABCAM, ab10579) and with anti-SMC1 1:2000 (Bethyl Laboratories #A300-055A) as loading control. For nuclear protein preparation, the Nuclear/Cytosol Fractionation Kit (K266-100, BioVision) was used according to the manufactures protocol.
# [6] = system: TRF1 protein in p53−/− MEFs nuclear extracts; experiment: Western blot of nuclear TRF1 in p53−/− MEFs; format: cell-based, mouse; conditions: 10 μM
# Experimental: as §2
# human AKT1 = target: T3, human AKT1 (Homo sapiens, UniProt P31749); experiment: In vitro TRF1 phosphorylation by AKT1; format: biochemical; conditions: MK-2206 25 μM
# T3 construct: purchased ProQinase 1379-0000-2
# T3 sequence (P31749 whole entry): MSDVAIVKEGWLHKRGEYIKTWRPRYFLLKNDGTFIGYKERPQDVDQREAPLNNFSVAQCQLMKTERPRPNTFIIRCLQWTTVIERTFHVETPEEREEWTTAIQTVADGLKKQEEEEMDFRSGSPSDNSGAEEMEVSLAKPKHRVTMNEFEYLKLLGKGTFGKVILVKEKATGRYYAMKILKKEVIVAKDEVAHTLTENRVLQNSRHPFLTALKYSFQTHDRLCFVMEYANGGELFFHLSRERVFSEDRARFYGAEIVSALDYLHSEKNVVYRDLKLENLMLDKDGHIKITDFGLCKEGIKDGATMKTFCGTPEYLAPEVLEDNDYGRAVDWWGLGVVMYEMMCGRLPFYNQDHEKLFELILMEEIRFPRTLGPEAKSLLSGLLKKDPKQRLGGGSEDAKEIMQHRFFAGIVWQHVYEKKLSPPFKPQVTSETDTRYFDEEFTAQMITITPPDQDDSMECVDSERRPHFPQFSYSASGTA
# Experimental: To address whether TRF1 is a direct substrate of AKT, affinity purified GST-TRF1 was incubated with purified human AKT1 (1379-0000-2, ProQinase) in the presence of γ-^32ATP. As positive control, a GSK3 (14-27) peptide (0349-0000-5, prokinase) was also used as substrate. AKT1 yielded a TRF1 phosphorylation signal after incubation with purified GST-TRF1 during 1 h, which was decreased in the presence of AKT inhibitor (see asterisk in Fig. 5a, left). AKT1 also yielded a phosphorylation signal in the positive control peptide GSK3 (14-27) that was reduced in the presence of AKT inhibitor (Fig. 5a, right). An autophospholyration activity of AKT1 was detected after 1 h of incubation and this activity was reduced in the presence of AKT inhibitor (Fig. 5a). Together, these findings indicate that TRF1 is a direct substrate of AKT1.
# One μg of purified GST-TRF1 was incubated with 0.2 μg of human GST-AKT1 (1379-0000-2, ProQinase) with or without AKT inhibitor (MK-2206, 25 μM) in kinase buffer (50 mM Hepes pH 7.9, 100 μM ATP, 10 mM MgCl2, 5 mM DTT) containing 5 μCi [γ-^32-P]ATP in a total volume of 25 μl. The peptide RBER-GSK3(14-27) (0349-0000-5, ProQinase) (100 ng) was used as positive control. The reactions were performed at 30 °C for […] and stopped by addition of Lamely buffer (6×). Samples were resolved in 4–12% SDS-PAGE gels and subjected to autoradiography.
# Akt1 = system: Akt1; design: method as in earlier work; conditions: reported in literature; read-out: Reported data IC50 Akt 1; cited from earlier work
# Akt2 = system: Akt2; design: method as in earlier work; conditions: reported in literature; read-out: Reported data IC50 Akt 2; cited from earlier work
# Akt3 = system: Akt3; design: method as in earlier work; conditions: reported in literature; read-out: Reported data IC50 Akt 3; cited from earlier work
# CHA-9.3 cell line = experiment: Cytotoxicity in CHA-9.3 cells; format: cell-based, mouse; conditions: 10 μM
# PI3Kα = conditions: reported in literature; cited from earlier work
# PI3Kβ = conditions: reported in literature; cited from earlier work
# PI3Kδ = conditions: reported in literature; cited from earlier work
# PI3Kγ = conditions: reported in literature; cited from earlier work
# mTOR 1 = conditions: reported in literature; cited from earlier work
# mTOR 2 = conditions: reported in literature; cited from earlier work
# T1 sequence (P42336 whole entry): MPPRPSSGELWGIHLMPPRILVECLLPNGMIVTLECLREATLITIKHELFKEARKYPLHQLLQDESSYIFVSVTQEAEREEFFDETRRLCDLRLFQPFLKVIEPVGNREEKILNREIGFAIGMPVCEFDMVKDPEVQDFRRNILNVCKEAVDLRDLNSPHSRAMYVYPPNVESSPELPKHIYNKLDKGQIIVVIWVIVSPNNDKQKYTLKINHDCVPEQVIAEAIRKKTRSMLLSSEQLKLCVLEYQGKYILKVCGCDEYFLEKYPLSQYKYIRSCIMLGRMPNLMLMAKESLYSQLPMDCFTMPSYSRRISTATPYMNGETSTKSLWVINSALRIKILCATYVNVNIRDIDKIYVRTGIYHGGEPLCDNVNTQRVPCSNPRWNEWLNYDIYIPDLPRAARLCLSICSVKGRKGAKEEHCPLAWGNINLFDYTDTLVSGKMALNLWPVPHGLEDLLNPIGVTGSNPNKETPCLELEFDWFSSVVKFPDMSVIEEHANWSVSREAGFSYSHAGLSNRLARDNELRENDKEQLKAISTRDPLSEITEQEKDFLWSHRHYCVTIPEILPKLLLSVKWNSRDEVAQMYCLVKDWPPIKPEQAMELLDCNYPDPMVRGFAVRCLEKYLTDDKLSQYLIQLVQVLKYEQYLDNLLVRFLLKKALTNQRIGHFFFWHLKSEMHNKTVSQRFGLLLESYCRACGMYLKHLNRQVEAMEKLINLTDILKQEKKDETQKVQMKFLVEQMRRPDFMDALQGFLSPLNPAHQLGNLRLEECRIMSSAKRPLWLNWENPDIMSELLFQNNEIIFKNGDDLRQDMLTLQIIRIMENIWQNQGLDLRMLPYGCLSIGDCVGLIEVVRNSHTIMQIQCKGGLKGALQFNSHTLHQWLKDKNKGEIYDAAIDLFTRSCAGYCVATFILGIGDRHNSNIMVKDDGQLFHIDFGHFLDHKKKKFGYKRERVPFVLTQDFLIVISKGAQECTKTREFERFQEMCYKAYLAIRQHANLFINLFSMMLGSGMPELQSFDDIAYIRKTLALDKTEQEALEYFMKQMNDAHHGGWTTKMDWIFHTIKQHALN
# T1 sequence (P27986 whole entry partner): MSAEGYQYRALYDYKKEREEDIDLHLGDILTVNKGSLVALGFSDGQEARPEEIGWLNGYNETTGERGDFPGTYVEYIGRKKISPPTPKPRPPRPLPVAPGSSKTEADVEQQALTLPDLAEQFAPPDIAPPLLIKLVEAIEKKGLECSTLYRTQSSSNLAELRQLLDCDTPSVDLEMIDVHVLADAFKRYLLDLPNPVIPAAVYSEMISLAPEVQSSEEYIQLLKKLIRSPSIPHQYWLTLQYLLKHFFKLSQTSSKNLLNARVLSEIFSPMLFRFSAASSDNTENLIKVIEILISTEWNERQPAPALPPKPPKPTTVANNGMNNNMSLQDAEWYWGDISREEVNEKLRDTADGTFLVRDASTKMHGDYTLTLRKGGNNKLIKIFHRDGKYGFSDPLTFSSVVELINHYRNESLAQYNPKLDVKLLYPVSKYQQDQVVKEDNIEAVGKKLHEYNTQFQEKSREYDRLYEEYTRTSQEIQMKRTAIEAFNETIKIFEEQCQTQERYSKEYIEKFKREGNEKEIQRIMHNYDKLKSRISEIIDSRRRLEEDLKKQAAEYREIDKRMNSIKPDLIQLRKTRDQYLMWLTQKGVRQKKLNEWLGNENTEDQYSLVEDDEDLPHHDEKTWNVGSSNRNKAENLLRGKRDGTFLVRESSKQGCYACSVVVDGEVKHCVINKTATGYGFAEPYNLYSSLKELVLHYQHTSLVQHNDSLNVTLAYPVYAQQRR
compound,measurement,setting,value
"NC1(c2ccc(-c3nc4ccn5c(=O)[nH]nc5c4cc3-c3ccccc3)cc2)CCC1 [MK-2206, reference compound]",IC50,PI3K (p110α),34.3 nM
same,IC50,mTOR (FRAP1),> 10000 nM
same,Phosphorylation of AKT (p-AKT S473) (in words),[1],strong inhibition
same,Inhibition of TRF1 foci (in words),"[2]; 10 μM (GSK-2126458 1.0 μM), 24 h, CHA-9.3",effectively inhibited TRF1 foci
same,TRF1 levels as compared to bortezomib/DMSO-treated control cells,"[2]; 10 μM plus bortezomib 50 nM, CHA 9-3",significantly lower
same,Reduction in TRF1 foci intensity,[3],22%
same,Frequency of MTS events per metaphase compared to DMSO,CHA 9-3 cells,significantly increased
same,TRF1 mRNA levels,[4],None of the inhibitors significantly affected
same,TRF1 protein levels in nuclear extracts,[5],significantly decreased
same,Total nuclear TRF1 levels compared to DMSO,[6],decreased
same,Autophosphorylation activity of AKT1,human AKT1; 1 h,reduced
same,Phosphorylation signal of control peptide GSK3 (14-27) by AKT1,human AKT1,reduced
same,TRF1 phosphorylation signal by AKT1,"human AKT1; purified GST-TRF1, 1 h",decreased
same,IC50,Akt1,8 nM
same,IC50,Akt2,12 nM
same,IC50,Akt3,65 nM
COc1ncc(-c2ccc3nccc(-c4ccnnc4)c3c2)cc1NS(=O)(=O)c1ccc(F)cc1F [GSK-2126458],Cytotoxicity,CHA-9.3 cell line,high cytotoxicity
same,IC50,mTOR 1,0.18 nM
same,IC50,mTOR 2,0.3 nM
